{
  "source": "patent US20120052099A1",
  "about": "“PHARMACEUTICAL COMPOSITION CONTAINING ARBIDOL IN THE FORM OF PHOSPHOLIPID NANOPARTICLES” (priority 2009, published 2012)",
  "key": {"[1]": {"conditions": "cited from earlier work"}, "[2]": {"tested_on": "whole blood", "assay": "Hemolysis on addition to whole blood in vitro", "assay_type": "cell-based", "conditions": "50 μl of 5 mg/ml Arbidol added to 950 μl whole blood, 37° C., 20 minutes"}, "[3]": {"conditions": "used internally; cited from earlier work"}, "[4]": {"assay": "Bioaccessibility (pharmacokinetics) after peroral administration in rats", "assay_type": "in vivo", "parameters": "area (chromatogram peak), blood: unit not given here", "conditions": "25 mg/kg", "protocol": "1. The content of an NF Arbidol flask was dissolved in 5 ml. (A) 2. An Arbidol solution was prepared at a concentration of 5 mg/ml (suspension in water). (B) 3. Feed was withdrawn from the animals, leaving them water only, 24 hours before the experiment, and the animals were weighed on the day of the experiment. 4. 1 ml of solution A and B was administered perorally to the rats. 5. Blood was collected at intervals of 5, 10, 15, 30, and 45 minutes into eppendorfs containing EDTA. After an eppendorf was filled, it was shaken intensively. 6. Blood treatment: 900 μl of methanol was added to 100 μl of blood and agitated intensively for 3 to 5 minutes. The mixture was centrifuged to cause sedimentation of proteins. It was then analyzed by high-performance liquid chromatography for presence of Arbidol in the samples.\nThe dose administered was 25 mg/kg."}, "[5]": {"conditions": "10 minutes after administration"}, "[6]": {"conditions": "15 minutes after administration"}, "[7]": {"conditions": "30 minutes after administration"}},
  "note": "“Also recorded” adds a separate entry of the source. Counter-ions that a name gives are not always drawn.",
  "data": [
    {"smiles": "CCOC(=O)c1c(CSc2ccccc2)n(C)c2cc(Br)c(O)c(CN(C)C)c12", "note": "[Arbidol, ethyl ester of 6-bromo-5-hydroxy-1-methyl-4-dimethylaminomethyl-2-phenylthiomethylindole-3-carbonic acid hydrochloride monohydrate]", "values": [
      {"measurement": "solubility in ethanol", "setting": "[1]; ethanol", "value": "dissolved only slightly in ethanol"},
      {"measurement": "solubility in water", "setting": "[1]; water, hydrochloride monohydrate", "value": "practically insoluble in water; also recorded: not soluble in water; also recorded: not dissolved in water"},
      {"measurement": "Hemolysis if added to whole blood", "setting": "[2]", "value": "causes hemolysis"},
      {"measurement": "T1/2", "setting": "[3]", "value": "approximately 17 hours"},
      {"measurement": "area (chromatogram peak), blood", "setting": "[4]; 5 minutes after administration", "value": "0/0"},
      {"measurement": "concentration in blood", "setting": "[4]; 5 minutes after administration", "value": "0/0 μg/ml"},
      {"measurement": "area (chromatogram peak), blood", "setting": "[4]; [5]", "value": 1.2},
      {"measurement": "concentration in blood", "setting": "[4]; [5]", "value": 0.3, "unit": "µg/mL"},
      {"measurement": "area (chromatogram peak), blood", "setting": "[4]; [6]", "value": 7.69},
      {"measurement": "concentration in blood", "setting": "[4]; [6]", "value": 2.4, "unit": "µg/mL"},
      {"measurement": "area (chromatogram peak), blood", "setting": "[4]; [7]", "value": 1.6},
      {"measurement": "concentration in blood", "setting": "[4]; [7]", "value": 0.4, "unit": "µg/mL"}
    ]}
  ]
}
